The text below walks through data of ChEMBL document CHEMBL1921737, “Utilizing G-quadruplex formation to target 8-oxoguanine in telomeric sequences” (Bioorg Med Chem Lett, 2011).

Holding throughout (format): nucleic-acid assay
Test [1] concerns Nucleic Acid. In words: Induction of telomeric [32P] Duplex DNA 5'-d(CGTTCAGAGCCGOxodGTTACGTCCTTCAT) 3'-d(CGAAGTCTGGCCAATGCAGGAAGTA) adduct formation at 4 uM for 30 mins in presence of Na2IrCl6 by PAGE method.
Test [2] deals with Nucleic Acid. The test is described as follows: Binding affinity to telomeric G-quadruplex DNA 5'-d(AOxodGGTTAGGGTTAGGGTTAGGGTGTT) at 1 to 10 uM by CD titration method in presence of 100 mM of KCl.
Test [3] deals with Nucleic Acid. In words: Induction of telomeric [32P] G-quadruplex DNA 5'-d(AGGGTTAGGGTTAOxodGGGGTTAGGGTGTT) adduct formation at 4 uM for 30 mins in presence of Na2IrCl6 by PAGE method.
The test system of test [4] is Nucleic Acid. In words: Binding affinity to telomeric Duplex DNA 5'-d(CGTTCAGAGCCGOxodGTTACGTCCTTCAT) 3'-d(CGAAGTCTGGCCAATGCAGGAAGTA) at 1 to 10 uM by CD titration method in presence of 100 mM of KCl.
Test [5] addresses Nucleic Acid. In words: Binding affinity to telomeric G-quadruplex DNA 5'-d(AGGGTTAGGGTTAGGGTTAGGG) by UV titration method.
Test [6] concerns Nucleic Acid. The test is described as follows: Induction of telomeric [32P] G-quadruplex DNA 5'-d(AOxodGGTTAGGGTTAGGGTTAGGGTGTT) assessed as adducts decomposition half life at 4 uM for 30 mins in presence of Na2IrCl6 by PAGE method.
Test [7] concerns Nucleic Acid. The test is described as follows: Binding affinity to telomeric G-quadruplex DNA 5'-d(AGGGTTAGOxodGGTTAGGGTTAGGGTGTT) at 1 to 10 uM by CD titration method in presence of 100 mM of KCl.
In test [8] the test system is Nucleic Acid. The test is described as follows: Binding affinity to telomeric G-quadruplex DNA 5'-d(AGGGTTAGGGTTAGGGTTAGGG) assessed as increase in melting temperature at 2 uM by UV thermal denaturation analysis.
Test [9] deals with Nucleic Acid. The test is described as follows: Induction of telomeric [32P] G-quadruplex DNA 5'-d(AGGGTTAGOxodGGTTAGGGTTAGGGTGTT) adduct formation at 4 uM for 30 mins in presence of Na2IrCl6 by PAGE method.
The subject of test [10] is Nucleic Acid. In words: Induction of telomeric [32P] G-quadruplex DNA 5'-d(GOxodGTTAGGGTTAGGGTTAGGGTTAGGG) assessed as adducts decomposition half life at 4 uM for 30 mins in presence of Na2IrCl6 by PAGE method.
The subject of test [11] is Nucleic Acid. The test is described as follows: Binding affinity to telomeric G-quadruplex DNA 5'[32P]-d(AGGGTTAGGGTTAOxodGGGGTTAGGGTGTT) at 1 to 10 uM by CD titration method in presence of 100 mM of KCl.
The test system of test [12] is Nucleic Acid. The test is described as follows: Induction of telomeric [32P] G-quadruplex DNA 5'-d(GOxodGTTAGGGTTAGGGTTAGGGTTAGGG) adduct formation at 4 uM for 30 mins in presence of Na2IrCl6 by PAGE method.
Test [13] has as its system Nucleic Acid. The test is described as follows: Binding affinity to telomeric G-quadruplex DNA 5'-d(GOxodGTTAGGGTTAGGGTTAGGGTTAGGG) at 1 to 10 uM by CD titration method in presence of 100 mM of KCl.
Test [14] concerns Nucleic Acid. The test is described as follows: Induction of telomeric [32P] G-quadruplex DNA 5'-d(AOxodGGTTAGGGTTAGGGTTAGGGTGTT) adduct formation at 4 uM for 30 mins in presence of Na2IrCl6 by PAGE method.
In test [15] the test system is Nucleic Acid. The test is described as follows: Binding affinity to telomeric G-quadruplex DNA 5'-d(AGGGTTAGGGTTAGGGTTAGGG) at 1 to 10 uM by CD titration method in presence of 100 mM of KCl.

SMILES strings stand for the structures. Calls of active or inactive are those of the source. The calls are words filed in the database; no cut-off is given here.

The term Kd denotes the equilibrium constant for the complex coming apart. Higher therefore signals a looser complex. What is called Tm is the temperature at the midpoint of the melting transition. For the molecule `NCC(CN)CCC(=O)NCCCN1C(=O)c2ccc3c4ccc5c6c(ccc(c7ccc(c2c37)C1=O)c64)C(=O)N(CCCNC(=O)CCC(CN)CN)C5=O`, the result in [1], in test [2], in test [4], in test [11], in test [12] and in test [13] was Active. The outcome in [14] and in test [15] was Active. Further, the result in test [3], in test [7] and in [9] was inactive. Binding in [5] was put at a Kd of 860 nM. The T1/2 in [6] and in [10] was 36 h throughout. In addition, the midpoint of thermal melting (Tm) in test [8] worked out at 5.2 °C.
For the molecule `NCCCNCCCCNCCCN1C(=O)c2ccc3c4ccc5c6c(ccc(c7ccc(c2c37)C1=O)c64)C(=O)N(CCCNCCCCNCCCN)C5=O`, in [12], the result was Active.
